Data taken from patent publication US11814371B2, “Heterocyclic compound” (MEDSHINE DISCOVERY INC., priority 2020, dated 2023).
pIC50: −log10 of the molar value. Where two headings read alike, the source gives them in different places.

Legend:
[1] = target: T1, recombinant human plasma kallikrein (Human PKal) (Homo sapiens, UniProt P03952); experiment: Inhibitory effect of test compounds on plasma kallikrein (PKal), fluorogenic substrate Z-FR-AMC; type: biochemical; settings: 10 µM Z-FR-AMC, 10 min pre-incubation
T1 construct: Gly20-Ala638 derived from NS0- with a 60-His appendage at the C-terminus; His tag ('60-His' [sic]) (C); purchased R&D Systems 2497-SE; host or cells: mouse myeloma cell line NS0
T1 sequence (P03952 20-638): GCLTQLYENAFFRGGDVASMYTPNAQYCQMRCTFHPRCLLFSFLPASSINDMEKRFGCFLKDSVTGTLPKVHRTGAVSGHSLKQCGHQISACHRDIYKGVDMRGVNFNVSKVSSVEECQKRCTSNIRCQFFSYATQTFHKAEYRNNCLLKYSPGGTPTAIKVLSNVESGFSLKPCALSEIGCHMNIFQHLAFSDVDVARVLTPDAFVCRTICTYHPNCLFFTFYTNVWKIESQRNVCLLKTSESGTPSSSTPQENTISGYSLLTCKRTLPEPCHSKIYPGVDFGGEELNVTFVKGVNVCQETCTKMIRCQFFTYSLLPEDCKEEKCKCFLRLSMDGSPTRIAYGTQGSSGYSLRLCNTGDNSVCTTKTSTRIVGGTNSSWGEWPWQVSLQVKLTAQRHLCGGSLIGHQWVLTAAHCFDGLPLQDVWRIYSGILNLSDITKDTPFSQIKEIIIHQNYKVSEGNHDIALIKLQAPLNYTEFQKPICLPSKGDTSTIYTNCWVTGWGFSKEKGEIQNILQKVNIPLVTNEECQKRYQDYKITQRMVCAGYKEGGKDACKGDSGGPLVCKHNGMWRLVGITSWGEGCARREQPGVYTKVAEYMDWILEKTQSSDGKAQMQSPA
Procedure: 1. PKal reaction buffer: 25 mM Tris-HCl (trometamol-HCl), pH 8.0, 100 mM NaCl, […], 0.01 % Brij35 (polyoxyethylene lauryl ether), and 1 % DMSO (final concentration).
2. Enzyme: PKal (R&D Systems Cat# 2497-SE), recombinant human plasma kallikrein expressed in a mouse myeloma cell line, Gly20-Ala638 derived from NS0- with a 60-His appendage at the C-terminus, MW=70 kDa. Activation of the enzyme: (1) rhPKal was diluted to 200 µg/mL activation buffer (100 mM Tris, 10 mM CaCl2, 150 mM NaCl, pH 7.5 (TCN)); (2) thermolysin was diluted to 20 µg/mL activation buffer; (3) rhPKal (200 µg/mL) and thermolysin (20 µg/mL) were mixed in equal volumes; (4) the mixture was incubated at 37° C. for 30 min; (5) then the reactions was stopped with 50 µM EDTA (ethylenediaminetetraacetic acid).
3. Substrate (Enzo Cat# P-139): 10 µM Z-FR-AMC (AMC: 7-amino-4-methylcoumarin).
4. Detection: EnVision (PE), Ex/Em 355/460 nm.
5. Reaction process: (1) The specified enzymes and substrates were prepared in freshly prepared activation buffer; (2) the enzyme solution was injected into the reaction hole; (3) the DMSO solution of the test compound was injected into the reaction mixture, and controlled within the nanoliter range using acoustic technology (Echo 550, LabCyte Inc. Sunnyvale, CA); (4) after 10 min of pre-incubation, the substrate solution was injected into the reaction hole to start the reaction; (5) the activity of the enzyme could be indicated by the increase of the fluorescence signal of the fluorescent labeled peptide substrate, which was monitored every 5 min and lasted for 120 min at room temperature; (6) data analysis: the slope* (fluorescence signal/time) of the straight line was measured, then the slope could be calculated by excel and the curve could be fitted by Prism software.

[2] = Pharmacokinetic test in rats after intravenous and intragastric administration (plasma, LC-MS/MS); type: in vivo; settings: male, SD, rat; for bioavailability: read-out: Bioavailability F; for AUC(0-inf): read-out: Curve area (o-inf) AUC0-inf; for AUC(0-t): read-out: Curve area (o-t) AUC0-last; for half-life: read-out: Half-life T½ (converted); for Tmax: read-out: Peak time Tmax; for Cmax: read-out: Plasma drug concentration Cmax; for Vd: read-out: Apparent volume of distribution Vdss; for clearance: read-out: Clearance rate Cl
Procedure: Male SD rats were used as test animals, and LC-MS/MS method was used to determine the drug concentrations in plasma of rats at different times after intravenous and intragastric administration of test compounds. The pharmacokinetic behaviors of the compounds in rats were studied and the pharmacokinetic characteristics were evaluated.
2.2 Test animals: 28 healthy adult male SD rats were divided into 14 groups with 2 rats in each group. Animals were purchased from Beijing Vital River Laboratory Animal Technology Co., Ltd.
(§1) An appropriate amount of sample was weighed, and an appropriate amount of DMSO, polyoxyethylene castor oil and sterile water for injection were added in sequence according to the volume ratio of 10:10:80, then the mixture was stirred and sonicated to reach a clear state of 0.5 mg/mL for intravenous administration.
as §1, with “clear or suspension” for “clear”, “0.4” for “0.5”, “intragastric” for “intravenous”
as §1, with “3” for “0.5”
2.4 Administration: 28 male SD rats were divided into 14 groups, after fasting for one night, the intravenous administration group was administered with an administration volume of 2 mL/kg and a dose of 1 mg/kg; the intragastric administration group 1 was administered with an administration volume of 5 mL/kg and a dose of 2 mg/kg. The intragastric administration group 2 was administered with an administration volume of 10 mL/kg and a dose of 30 mg/kg.
After the compound was administered intravenously to male SD rats, 40 µL of blood was collected at 0.0833, 0.25, 0.5, 1, 2, 4, 8 and 24 hours, respectively, and placed in tubes containing 2 µL of EDTA-K2. After the compound was administered in the intragastric administration group, 40 µL of blood was collected at 0.25, 0.5, 1, 2, 4, 6, 10 and 24 hours, respectively, and placed in tubes containing 2 µL of EDTA-K2. The tubes were centrifuged at 4000 rpm for 15 minutes to separate the plasma, and stored at -60° C. Animals were allowed to eat 2 hours after administration.
LC-MS/MS method was used to determine the content of the test compounds in the plasma of rats after intravenous and intragastric administration. The linear range of the method was 2.00 - 6000 nmol/L; plasma samples were treated with acetonitrile to precipitate protein, and then analyzed.

[3] = po, intragastric administration (group 1), nominal 2 mg/kg (actual dose in c2)
[4] = po, intragastric administration (group 2), nominal 30 mg/kg (actual dose in c2)
[5] = intravenous administration, nominal 1 mg/kg (actual dose in c2)

pIC50 [1]	bioavailability [2, 3] [%]	AUC(0-inf) [2, 3] [µM·h]	AUC(0-t) [2, 3] [µM·h]	half-life [2, 3] [min]	Tmax [2, 3] [min]	Cmax [2, 3] [nM]	bioavailability [2, 4] [%]	AUC(0-inf) [2, 4] [µM·h]	AUC(0-t) [2, 4] [µM·h]	half-life [2, 4] [min]	Tmax [2, 4] [min]	Cmax [2, 4] [nM]	Vd [2, 5] [L/kg]	clearance [2, 5] [mL/min/kg]	AUC(0-inf) [2, 5] [µM·h]	AUC(0-t) [2, 5] [µM·h]	half-life [2, 5] [min]	Structure (SMILES)
9.33	11.2	0.591	0.584	94.2	15	680	54	42.5	42.4	115	15	18600	0.188	12.2	2.62	2.62	23.5	COc1ccc(F)c(CNC(=O)c2cn(Cc3ccc(Cn4cc(F)ccc4=O)c(F)c3)nc2C2COC2)c1F [Compound 8]
9.86	15.3	1.34	1.33	93.6	30	1140							0.202	7.09	4.38	4.35	37.4	COc1ccc(F)c(CNC(=O)c2cn(Cc3ccc(Cn4cc(F)ccc4=O)cc3)nc2C2COC2)c1F [Compound 1]
